Assay [1] relates to HCT-116. The assay is described as follows: Cytotoxicity against human HCT116 cells assessed as cell viability after 72 hrs by SRB assay. Type of assay: functional, cell-based. Conditions: HCT-116, 72 h. (In general: The SRB assay estimates cell density from bound dye.)
The subject of assay [2] is MV4-11. The assay is described as follows: Cytotoxicity against human MV4-11 cells assessed as cell viability after 72 hrs by MTT assay. Type of assay: functional, cell-based. Conditions: MV4-11, 72 h. (In general: Tetrazolium assays rely on reduction of a dye to a coloured formazan, in cell work by metabolically active cells.)
Assay [3] has as its system BALB/3T3. The assay is described as follows: Cytotoxicity against mouse BALB/3T3 cells assessed as cell viability after 72 hrs by SRB assay. The assay is classed as cell-based. The conditions noted are these: BALB/3T3, 72 h.
The subject of assay [4] is A549. The experiment in a line: Cytotoxicity against human A549 cells assessed as cell viability after 72 hrs by SRB assay. Type of assay: functional, cell-based. Conditions: A549, 72 h.
Assay [5] deals with A549. The assay is described as follows: Selectivity ratio of IC50 for human A549 cells to IC50 for human HCT116 cells. The assay is classed as functional.
Assay [6] has as its system Salmonidae. The assay is described as follows: Binding affinity to Salmon fish sperm DNA by UV-visible spectroscopy.
In assay [7] the test system is HCT-116. The experiment in a line: Selectivity ratio of IC50 for human MV4-11 cells to IC50 for human HCT116 cells. The assay is classed as functional.

Consider 43 compounds from ChEMBL document CHEMBL3232753, “Synthesis and in vitro cytotoxic effect of 6-amino-substituted 11H- and 11Me-indolo[3,2-c]quinolines” (Eur J Med Chem, 2014).

The structures appear in SMILES notation.

For orientation: IC50 means the midpoint of a concentration-inhibition curve. Turning to `NCCCNc1nc2ccccc2c2[nH]c3ccccc3c12`, the IC50 in assay [1] turned out to be 260 nM; in assay [2], 120 nM; in assay [3] it was 1050 nM; in assay [4], 170 nM.
Turning to `Cn1c2ccccc2c2c(NCC(C)(C)CN)nc3ccc(Br)cc3c21`, the half-maximal inhibitory concentration (IC50) in assay [2] is 500 nM.
Same read-out and setting: the same measure for `CC(C)(CN)CNc1nc2ccc(Cl)cc2c2[nH]c3ccccc3c12`: 590 nM.
For the compound `Cn1c2ccccc2c2c(NCC(C)(C)CN)nc3ccccc3c21`, the IC50 in assay [1] was 130 nM; in assay [2], 150 nM; in assay [3], 700 nM; in assay [4], 540 nM.
`CC(CN)CNc1nc2ccc(Cl)cc2c2[nH]c3ccccc3c12` (configuration not stated): the IC50 in assay [2] came to 620 nM.
Same read-out and setting: the same measure for `NCCCNc1nc2cccc(Br)c2c2[nH]c3ccccc3c12`: 600 nM.
`NCCCN1CCN(CCCNc2nc3ccccc3c3[nH]c4ccccc4c23)CC1`: the IC50 stood at 980 nM in assay [1], 390 nM in assay [2], 1150 nM in assay [3] and 760 nM in assay [4].
On to `OCCNc1nc2ccccc2c2[nH]c3ccccc3c12`, for which the IC50 in assay [1] was determined as 190 nM; in assay [2] it was 440 nM; in assay [3], 830 nM; in assay [4] it was 1450 nM. For the same compound, the “Ratio IC50” value in assay [5] was determined as 7.
`Clc1nc2ccccc2c2[nH]c3ccccc3c12`: the IC50 in assay [2] was found to be 9140 nM.
Turning to `CN(C)CCCNc1nc2ccccc2c2[nH]c3ccccc3c12`, the IC50 was 550 nM in assay [1], 410 nM in assay [2], 1180 nM in assay [3] and 870 nM in assay [4]. Also, the K in assay [6] worked out at 1.05 ×10⁶ L/mol.
Turning to `Cn1c2ccccc2c2c(NCCCN)nc3ccc(Cl)cc3c21`, the half-maximal inhibitory concentration (IC50) was found to be 110 nM in assay [1], 120 nM in assay [2], 940 nM in assay [3] and 730 nM in assay [4].
On the same counts, the results for `CN1CCCN(c2nc3ccccc3c3[nH]c4ccccc4c23)CC1` are 1650 nM, 740 nM, 8960 nM and 1970 nM.
In the case of `Cn1c2ccccc2c2c(NCCCN)nc3ccccc3c21`, the IC50 in assay [1] came out at 60 nM; in assay [2] it was 110 nM; in assay [3], 950 nM; in assay [4], 180 nM.
On the same counts, the results for `c1ccc(CNc2nc3ccccc3c3[nH]c4ccccc4c23)cc1` are 1460 nM, 770 nM, 8040 nM and 1990 nM.
On the same counts, the results for `c1ccc2c(c1)nc(NCC1CCCO1)c1c3ccccc3[nH]c21` (configuration not stated) are 1280 nM, 750 nM, 3040 nM and 1400 nM.
`Cn1c2ccccc2c2c(NCCCN)nc3ccc([N+](=O)[O-])cc3c21`: the half-inhibitory concentration (IC50) in assay [1] was found to be 10 nM; in assay [2], 50 nM; in assay [3], 80 nM; in assay [4] it was 110 nM.
As for `NCCCNc1nc2ccc(Cl)cc2c2[nH]c3ccccc3c12`, the IC50 in assay [2] came out at 560 nM.
Take `Cn1c2ccccc2c2c(NCC(C)(C)CN)nc3ccc(Cl)cc3c21`: in assay [2], the IC50 is 560 nM.
As for `CCN(CC)CCCC(C)Nc1nc2ccccc2c2c1c1ccccc1n2C` (configuration not stated), the IC50 in assay [1] was 50 nM; in assay [2], 70 nM; in assay [3], 500 nM; in assay [4], 110 nM.
For `NCCCCCCNc1nc2ccccc2c2[nH]c3ccccc3c12`, in that order: 1080 nM, 710 nM, 1070 nM and 1060 nM.
On to `NCCCCCNc1nc2ccccc2c2[nH]c3ccccc3c12`, for which the IC50 amounted to 1060 nM in assay [1], 610 nM in assay [2], 1010 nM in assay [3] and 1050 nM in assay [4].
As for `NCCCNc1nc2ccc(F)cc2c2[nH]c3ccccc3c12`, the IC50 in assay [2] is 590 nM.
Regarding `NCCCCNc1nc2ccccc2c2[nH]c3ccccc3c12`, the IC50 is 1060 nM in assay [1], 700 nM in assay [2], 1140 nM in assay [3] and 1160 nM in assay [4].
In the case of `c1ccc(Nc2nc3ccccc3c3[nH]c4ccccc4c23)cc1`, the IC50 in assay [2] stood at 8370 nM.
For `CN(C)CCCNc1nc2ccc(Cl)cc2c2c1c1ccccc1n2C`, the IC50 in assay [1] amounted to 100 nM; in assay [2] it was 80 nM; in assay [3], 820 nM; in assay [4] it was 570 nM. This compound returned a K in assay [6] of 4.84 ×10⁶ L/mol.
Consider `Cn1c2ccccc2c2c(Cl)nc3ccccc3c21`, for which, in assay [2], the IC50 came out at 16600 nM.
On to `NCCCNc1nc2ccc(Br)cc2c2[nH]c3ccccc3c12`, for which the IC50 in assay [2] stood at 650 nM.
Consider `Cn1c2ccccc2c2c(NCCCN)nc3ccc(F)cc3c21`, for which the IC50 in assay [1] was found to be 110 nM; in assay [2] it was 170 nM; in assay [3] it was 980 nM; in assay [4], 250 nM.
Consider `COc1ccc(Nc2nc3ccccc3c3[nH]c4ccccc4c23)c(OC)c1`, for which, in assay [2], the concentration for half-maximal inhibition (IC50) was 7280 nM.
Same read-out and setting: the same measure for `CN1CCCN(c2nc3ccccc3c3c2c2ccccc2n3C)CC1`: 960 nM.
For `OCCCNc1nc2ccccc2c2[nH]c3ccccc3c12`, the concentration for half-maximal inhibition (IC50) in assay [1] was 260 nM; in assay [2] it was 380 nM; in assay [3] it was 860 nM; in assay [4], 2210 nM. In addition, in assay [5], the “Ratio IC50” value is given as 7.
As to `COc1ccc2nc(NCCCN)c3c4ccccc4[nH]c3c2c1`, the IC50 was found to be 70 nM in assay [1], 120 nM in assay [2], 310 nM in assay [3] and 160 nM in assay [4]. The “Ratio IC50” value in assay [7] is on record as 8.
As to `NCCCNc1nc2ccc([N+](=O)[O-])cc2c2[nH]c3ccccc3c12`, the IC50 in assay [1] turned out to be 100 nM; in assay [2] it was 150 nM; in assay [3], 360 nM; in assay [4], 350 nM.
For `COc1ccc2nc(NCCCN)c3c4ccccc4n(C)c3c2c1`, in that order: 10 nM, 100 nM, 100 nM and 110 nM.
For `Cc1ccc2nc(NCCCN)c3c4ccccc4n(C)c3c2c1`, in that order: 70 nM, 90 nM, 420 nM and 140 nM.
In the case of `Cn1c2ccccc2c2c(NCCCN)nc3ccc(Br)cc3c21`, the IC50 in assay [2] is 430 nM.
Still for that read-out and setting: the same measure for `CCN(CC)CCCC(C)Nc1nc2ccc(Cl)cc2c2c1c1ccccc1n2C` (configuration not stated): 570 nM.
The same measure, in the same setting: in the case of `CN(C)CCCNc1nc2ccc(Br)cc2c2c1c1ccccc1n2C` it was 390 nM.
As for `CN(C)CCCNc1nc2ccccc2c2c1c1ccccc1n2C`, the IC50 in assay [1] is 200 nM; in assay [2] it was 140 nM; in assay [3], 780 nM; in assay [4] it was 140 nM.
As for `c1ccc2c(c1)nc(N1CCCNCC1)c1c3ccccc3[nH]c21`, the half-inhibitory concentration (IC50) in assay [1] was 1730 nM; in assay [2] it was 850 nM; in assay [3] it was 10100 nM; in assay [4], 2460 nM.
In the case of `Cc1ccc2nc(NCCCN)c3c4ccccc4[nH]c3c2c1`, the IC50 in assay [1] is 80 nM; in assay [2] it was 140 nM; in assay [3], 920 nM; in assay [4], 210 nM. The “Ratio IC50” value in assay [7] is 8.
Take `Cn1c2ccccc2c2c(NCCCNC(=O)Nc3ccccc3)nc3ccccc3c21`: the IC50 in assay [1] stood at 820 nM; in assay [2] it was 570 nM; in assay [3], 6110 nM; in assay [4] it was 1190 nM.
For `c1ccc2c(c1)nc(N1CCOCC1)c1c3ccccc3[nH]c21`, the IC50 in assay [2] was 9430 nM.
